The term melting point denotes the temperature of the solid-liquid transition. Usually boiling point stands for the temperature of boiling at a given pressure.

Settings in one data set: not given
As to `C[C@]12C=CC(=O)C=C1CC[C@@H]1[C@@H]2CC[C@@]2(C)[C@H]1CC[C@]2(C)O`, the melting point worked out at 164 °C.

`CCC(=O)C(C)=O` registered a boiling point of 108 °C.

For `O=C1C=CC(=O)C=C1`, the log10 vapour pressure (mmHg) is -1.05 and the melting point turned out to be 116 °C.

For `O=C(Oc1ccccc1)c1ccccc1C(=O)Oc1ccccc1`, the melting point stood at 73 °C.

`CCCC(C)Br` (stereo not drawn) registered a boiling point of 117 °C, a log10 vapour pressure (mmHg) of 1.33 and a melting point of -95.5 °C.

`CCCCCc1ccc(O)cc1`: the boiling point is 250 °C and the melting point worked out at 23 °C.

Regarding `Clc1cccc(C(Cl)(Cl)Cl)n1`, the log10 Koc (L/kg) was 2.62, the log10 vapour pressure (mmHg) was -2.32 and the melting point was determined as 63 °C.

As for `CC(=O)c1ccc(C)cc1C`, the boiling point came out at 228 °C.

`CC(C)C1=CC[C@H]2C(=C1)CC[C@@H]1[C@]2(C)CCC[C@@]1(C)C(=O)O`: the melting point turned out to be 150 °C.

With `CCCOC`, the boiling point was determined as 39.1 °C and the log10 vapour pressure (mmHg) worked out at 2.67.

For the compound `CCCCCCCCCCCCCC=O`, the boiling point was determined as 260 °C and the melting point was determined as 20.5 °C.

`CCCCSC` came in with a boiling point of 124 °C, a log10 vapour pressure (mmHg) of 1.19 and a melting point of -97.8 °C.

Regarding `COC(C)(C)CCOC(C)=O`, the ready biodegradability entry was “readily biodegradable”.

As to `COC1[C@@H](O[C@@H]2O[C@H](C)[C@@H](O[C@H]3C[C@@](C)(O)[C@H](OC(=O)CC(C)C)[C@H](C)O3)[C@H](N(C)C)[C@H]2O)[C@@H](CC=O)C[C@@H](C)[C@@H](O)C=CC=CC[C@@H](C)OC(=O)C[C@H]1OC(C)=O` (stereo partly drawn), the melting point came out at 132 °C.

`Clc1ccc(-c2c(Cl)cc(Cl)c(Cl)c2Cl)cc1Cl` returned a melting point of 107 °C.

For `c1ccc(Nc2cccc3ccccc23)cc1`, the melting point was 62 °C and the ready biodegradability result is on record as “not readily biodegradable”.

In turn, `O=C1C=CCC1` had a boiling point of 136 °C.

In turn, `C#CCCCCCCCCC` gave a boiling point of 196 °C and a melting point of -25 °C.

`FC(F)(F)C(F)(F)C(F)(C(F)(F)F)C(F)(F)C(F)(F)F` displayed a boiling point of 58.4 °C and a melting point of -115 °C.

The compound `Cc1c(C)c(C)c(C(=O)O)c(C)c1C` came in with a melting point of 210 °C.

Regarding `CCCCCCI`, the boiling point was found to be 181 °C, the log10 Henry constant (atm·m³/mol) was -1.55, the log10 vapour pressure (mmHg) came out at 0.147 and the melting point was -74.2 °C. Moreover, the ready biodegradability entry is “readily biodegradable”.

For the compound `Cc1cccc(N)c1C`, the boiling point worked out at 222 °C, the log10 vapour pressure (mmHg) was -1.12 and the ready biodegradability entry is listed as “not readily biodegradable”.

`CCOC(=O)CCCCCCC(=O)OCC`: the boiling point turned out to be 283 °C and the melting point turned out to be 5.9 °C.

In turn, `Cl.ClCCN(Cc1ccccc1)Cc1ccccc1` displayed a melting point of 192 °C.

Compound `CC1=CCOCC1` had a boiling point of 118 °C.

The compound `CCC(C)c1ccc(O)c([N+](=O)[O-])c1` (stereo not drawn) came in with a log10 Henry constant (atm·m³/mol) of -4.02 and a log10 vapour pressure (mmHg) of -2.34.

In the case of `CCCCCOC(=O)c1ccccc1C(=O)OCCCCC`, the boiling point stood at 342 °C.

As for `CCc1ccccc1-c1ccccc1`, the boiling point came to 266 °C and the melting point is -6 °C.

Take `C=CC/C=C/C/C=C/C/C=C/C`: the ready biodegradability result is on record as “not readily biodegradable”.

On to `COC1CC1`, for which the boiling point came to 44.7 °C and the melting point is -119 °C.

The compound `Nc1nc(F)nc2c1ncn2[C@@H]1O[C@H](CO)[C@@H](O)[C@@H]1O` gave a melting point of 260 °C.

Regarding `O=P(O)(O)OCC(O)CO` (stereo not drawn), the melting point is -25 °C.

For the compound `Fc1cc(F)c(F)c(F)c1F`, the boiling point came to 85.7 °C, the log10 vapour pressure (mmHg) was 1.83 and the melting point is -47.3 °C.

With `CCOC(=O)C(Br)C(C)Br` (stereo not drawn), the melting point was 58.5 °C.

`O=C[C@H](O)[C@@H](O)[C@H](O[C@@H]1O[C@H](CO)[C@@H](O)[C@H](O)[C@H]1O)[C@H](O)CO` had a melting point of 240 °C.

`CCC1CCC(C)CC1` (stereo not drawn) yielded a boiling point of 151 °C and a melting point of -80.8 °C.

The compound `Cc1ccc(S(=O)(=O)N(Cl)Cl)cc1` came in with a melting point of 83 °C.

Consider `C=C(C)C(=O)OCCN(C)C`, for which the boiling point was found to be 186 °C and the melting point was -30 °C.

`ClCc1ccc(CCl)cc1`: the melting point stood at 100 °C.

In the case of `CCC(C)OC(C)=O` (stereo not drawn), the boiling point came to 112 °C, the log10 vapour pressure (mmHg) was found to be 1.23, the melting point was -98.9 °C and the ready biodegradability result is “readily biodegradable”.

With `CCNc1nc(NC(C)C)nc(OC)n1`, the log10 Koc (L/kg) was found to be 2.64 and the log10 vapour pressure (mmHg) is -5.54.

`O=C(O)c1cc(Oc2ccc(C(F)(F)F)cc2Cl)ccc1[N+](=O)[O-]` yielded a log10 Koc (L/kg) of 2.05 and a melting point of 150 °C.

For `Cc1cccc(C)c1N`, the boiling point amounted to 215 °C, the log10 vapour pressure (mmHg) was -0.886, the melting point came out at 11.2 °C and the ready biodegradability entry is on record as “not readily biodegradable”.

`CC(=O)C(C)Cl` (stereo not drawn): the boiling point came out at 115 °C.

As for `Cc1ccc(O)cc1O`, the boiling point came to 268 °C and the melting point stood at 106 °C.

The compound `CCCCC(CC)CNCC(CC)CCCC` (stereo not drawn) yielded a boiling point of 281 °C, a log10 vapour pressure (mmHg) of -2 and a melting point of -60 °C.

Still in this data set, the particulars now being: fish.
`CCN(CC)c1ccc2c(-c3ccccc3C(=O)O)c3ccc(N(CC)CC)cc3[o+]c2c1` registered a log10 BCF of 0.23.

Compound `Oc1cc(Cl)c(Cl)cc1Cl` displayed a log10 BCF of 2.73.

The compound `Clc1ccc(-c2c(Cl)cc(Cl)c(Cl)c2Cl)cc1Cl` gave a log10 biotransformation half-life (days) of 2.57.

Compound `c1ccc(Nc2cccc3ccccc23)cc1` came in with a log10 BCF of 3.23.

The record behind these values is the OPERA property sets (Mansouri et al. 2018).
